Peptide text beside a SMILES is read from it. * marks the point of attachment. Tos = Cc1ccc(S(=O)(=O)*)cc1; CH2Cl = ClC*
How the values were obtained:
[1] = system: thrombin; assay: Thrombin time test; assay type: biochemical; settings: for TT: without conjugate 13.4; for Potency score in TT test: most potent (1) to least potent (5)
[2] = system: CNS-1 glioma cells; assay: Proliferation (XTT) of CNS-1 glioma cells; assay type: cell-based, rat; settings: CNS-1 cells; for inhibition of cell proliferation: XTT, 48 hours
Experimental: (§1) Several peptide moieties (Table 1) according to the present invention were synthesized. Proliferation was measured, by means of XTT, in C6 and CNS-1 glioma cell-lines (FIGS. 8A and 8B, respectively). In C6 cells, proliferation was measured before (black bar) and after cells were treated with the PAR-1 antagonist SCH79797 at various doses ranging from 10 nM to 10 μM (grey bars; FIG. 8A).
In another set of experiments, CNS-1 glioma cell-line was treated with increased doses of TLCK (125 nM to 14 mM), for 48 hours (FIG. 9; grey bars). Proliferation was measured by means of XTT in comparison to non-treated cells (control; black bar).
Initially, CNS-1 glioma cells were treated with increased concentrations of two peptide conjugates: a short conjugate of the formula tosyl-DPR-CK (comprising 3 amino acids, 3AA) or a long conjugate of the formula tosyl-NATLDPR-CK (comprising 7 amino acids, 7AA; SEQ ID NO: 4) in concentrations of 100 pM, 1 nM and 10 nM, for 48 hours (FIG. 10). FIG. 10 provides the results of an XTT assay used for assessing cell proliferation.
The effect of the peptide conjugate alone, or in combination with PAR-1 antagonist, SCH79797, on cell proliferation was determined in comparison to untreated cells or cells treated with PAR-1 antagonist (FIG. 13).

[3] = system: blood coagulation (aPTT); assay: Activated partial thromboplastin time test; assay type: biochemical; settings: for aPTT: without conjugate 30.5; for Potency score in aPTT test: most potent (1) to least potent (5)
[4] = in vivo; settings: ip, 2 micromolar, in 100 ul
Experimental: The concentrations of the peptide conjugates in the plasma of animals treated therewith was evaluated by a unique method that was based on the ability of the peptide conjugates to inhibit thrombin activity. […] The essay initiated by obtaining blood samples from animals which received the peptide conjugates (100 microliter containing 2 micromolar, i.p.). The blood samples, after being maintained in citrate buffered sample tubes, were subjected to centrifugation for plasma separation. Samples were then filtered through a membrane with a 10 kD molecular weight cutoff which excluded all blood coagulation factors (by addition of calcium to neutralize the anticoagulation effect of the citrate buffer). Coagulation factor-free plasma samples were then applied to the thrombin activity assay.
The resulting thrombin activities in each plasma sample either diluted (×10) or as is were given in arbitrary units (FIGS. 18-18D, diagonal shading and dotted bars, respectively). However, the actual concentration were deduced by comparing the activities to calibrated activities generated with known concentrations of the conjugate peptides. The calibration data included the following thrombin activities: activity in a sample of thrombin in the absence of plasma and conjugates (black bars, FIGS. 18A-18D); and activity in four samples of thrombin and known concentrations of the peptide conjugates (10 nM, 100 nM, 1 micromolar and 10 micromolar; bars 2nd to 5th from right in FIGS. 18A-18D).

[5] = system: CNS-1 glioma cells
Experimental: The thrombin-like activity of CNS-1 cells was initially measured in control cells and in cells treated with (i) the short peptide conjugate (tosyl-DPR-CK, corresponding to a conjugate that includes the peptide termed 3AA) or (ii) the long conjugate (tosyl-NATLDPR-CK, corresponding to a conjugate that includes the peptide termed 7AA (SEQ ID No. 4)) at high ([…]) and low (100 nM) concentrations (FIG. 16).

[6] = system: blood coagulation
[7] = system: Factor Xa; assay: Factor Xa activity test; assay type: biochemical; settings: for Fxa: without conjugate 0.11; for Potency score in Factor Xa activity test: most potent (1) to least potent (5)
[8] = system: blood coagulation (prothrombin time); assay: Prothrombin time test; assay type: biochemical; settings: for PT: without conjugate 11.5; for Potency score in PT test: most potent (1) to least potent (5)
[9] = target: Protein C (Homo sapiens, UniProt P04070); assay: Protein C activity test; assay type: biochemical; settings: for aPC: without conjugate 109; for Potency score in Protein C activity test: most potent (1) to least potent (5)
Protein C, sequence (P04070 212-461 limits assumed): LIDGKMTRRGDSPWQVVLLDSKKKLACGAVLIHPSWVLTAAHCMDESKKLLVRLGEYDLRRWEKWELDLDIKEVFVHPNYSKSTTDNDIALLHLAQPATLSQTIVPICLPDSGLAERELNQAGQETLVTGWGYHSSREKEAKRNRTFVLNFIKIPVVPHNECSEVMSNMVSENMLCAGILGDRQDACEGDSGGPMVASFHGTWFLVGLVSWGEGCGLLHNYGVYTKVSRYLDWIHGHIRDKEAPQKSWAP
Protein C, sequence (P04070 43-197 partner limits assumed): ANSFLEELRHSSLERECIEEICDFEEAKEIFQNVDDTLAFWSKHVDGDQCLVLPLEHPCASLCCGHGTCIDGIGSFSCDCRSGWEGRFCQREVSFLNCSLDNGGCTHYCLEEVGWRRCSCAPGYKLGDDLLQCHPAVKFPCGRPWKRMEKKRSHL

[10] = system: C6 glioma cells; assay: Proliferation (XTT) of C6 glioma cells; assay type: cell-based; settings: 10 nM to 10 μM
Experimental: as §1

[11] = system: STZ-induced diabetic BALB/c mice; assay: Sciatic nerve conduction velocity in STZ diabetic neuropathy mice; assay type: in vivo; settings: daily 100 microliter of 10 nM, p=0.016, listed as T5AACK
Experimental: The conduction velocity of sciatic nerves derived from an animal model of diabetes (streptozotocine (STZ)-induced diabetes; FIG. 20) was measured in mice treated daily with sham (STZ), or with the active drug TLDPR (peptide 5AA; SEQ ID NO: 2) nested between N alpha-tosyl and chloromethyl ketone, namely […] (termed hereinafter T5AACK) injected in 100 microliter of 10 nM, 100 nM and 1 micromolar.
Conduction velocities in the sciatic nerves of the mice were assessed by standard electrophysiology nerve conduction methods by a blind assessor. The nerve conduction studies were carried out one month after the induction of diabetes. A group of normal mice without diabetes served as controls. All STZ treated mice developed severe diabetes.
Streptozotocyn (STZ) was dissolved in citrate buffer pH 4.5 and a single dose of STZ was administered IP (140 mg/kg) to 12 weeks BALB/c mice. […] Mice developed diabetic neuropathy developed within 4 weeks after the induction of diabetes. […]
Conduction velocities in the sciatic nerves of the mice were assessed by standard electrophysiology nerve conduction methods by a blind assessor (FIG. 19).

[12] = system: EAN rats (experimental autoimmune neuritis); assay: Electrophysiological tests in EAN rats treated with thrombin inhibitors; assay type: in vivo, rat
Experimental: (§2) Electrophysiological tests of the sciatic nerves were performed on day 32 PI (post-immunization/induction) in EAN model (FIGS. 3A-C) and 8 weeks after STZ induction (FIG. 4A-C). Rats were anesthetized with Phenobarbital (IP, 24 mg/kg). Two pairs of monopolar needle electrodes were used to stimulate the tail nerves. Stimulating cathodes were inserted to a depth of 4-5 mm at the base of the tail and 4 cm distally. An anode at each location was inserted into the skin (4-5 mm depth) 1 cm proximal to the cathode. A ground electrode was placed between the distal stimulating electrode and the active recording electrode. Electromyography (EMG) recordings of responses of the tail muscles to proximal and distal stimuli, made by a pair of ring electrodes coated with electrode jelly and placed 1 cm distally to the distal stimulating electrode, were collected. The tail skin was wiped with alcohol prior to placing the electrodes. […] Both proximal and distal latencies were measured using time intervals from the stimulus artifact to the first deflection from baseline. To calculate the motor nerve conduction velocity (MNCV), the distance between stimulating cathodes was divided by the latency difference. Amplitudes of the compound muscle action potential (CMAP) from both proximal and distal stimulations were measured from the negative to the positive peaks. The reduction of the proximal CMAP compared with that of the distal CMAP was calculated by the equation: [(distal CMAP-proximal CMAP)/distalCMAP×100] and was defined as the R ratio. Temperature differences were minimized by conducting the study as soon as the anesthesia had taken effect and by warming the tail with a heating lamp.
(§3) FIGS. 3 and 4 each include 3 graphs summarizing the results from electrophysiological tests of treated rats, as follows: distal latency (3A, 4A) referring to the time, in milliseconds, between distal stimulation to recording; conduction velocity (3B, 4B) referring to the distance over time, in meters/seconds; and amplitude (3C, 4C) referring to the size of the response as measured in millivolts.

[13] = system: C6 glioma cells; assay: Thrombin-like activity in C6 glioma cell line; assay type: cell-based; settings: four hours after treatment
[14] = system: STZ-induced diabetic rats; assay: Electrophysiological tests in STZ-induced diabetic rats treated with thrombin inhibitors; assay type: in vivo, rat; settings: STZ rats
Experimental: as §2, §3

TT ([1]; 10 nM)	Potency score in TT test ([1]; 1 μM)	TT ([1]; 1 μM)	TT ([1]; 100 μM)	aPTT ([3]; 10 nM)	aPTT ([3]; 1 μM)	Potency score in aPTT test ([3]; 100 μM)	aPTT ([3]; 100 μM)	level at time molar [4]	IC50 [5]	PT ([8]; 10 nM)	PT ([8]; 1 μM)	Potency score in PT test ([8]; 100 μM)	PT ([8]; 100 μM)	aPC ([9]; 1 μM)	Potency score in Protein C activity test ([9]; 100 μM)	aPC ([9]; 100 μM)	Compound	Potency score in Factor Xa activity test ([7]; 100 μM)	Fxa ([7]; 100 μM)	further results
14.1 s	1	> 80 s	> 80 s	30 s	38.1 s	1	150 s	~1000 nM	0.007 nM	11.5 s	12.3 s	1	FAILED	107	1	FAILED	Cc1ccc(S(=O)(=O)N[C@@H](CC(=O)O)C(=O)N2CCC[C@H]2C(=O)N[C@@H](CCCNC(=N)N)C(=O)CCl)cc1 [3AA, tosyl-DPR-CK] (Tos-Asp-Pro-Arg-CH2Cl)	1	FAILED	inhibition of cell proliferation ([2]; 1 nM): significant inhibition of cell proliferation; inhibition of cell proliferation ([2]; 10 nM): higher inhibition; effect on coagulation, overall [6]: significantly more deleterious effects on coagulation; Fxa ([7]; 1 μM): 0.21
–	–	–	–	–	–	–	–	–	–	–	–	–	–	–	–	–	CC(C)c1ccc(Cn2ccc3c4c(N)nc(NC5CC5)nc4ccc32)cc1.Cl.Cl [SCH79797, N3-Cyclopropyl-7-[[4-(1-methylethyl)phenyl]methyl]-7H-pyrrolo[3,2-f]quinazoline-1,3-diamine dihydrochloride, reference compound]	–	–	inhibition at 1 µM ([2]; Rattus norvegicus, Glioma cell, 1 μM, alone): 25%; proliferation [10]: inhibited proliferation in a dose-dependent manner
13.8 s	4	17.8 s	> 80 s	30.1 s	30.5 s	4	63.9 s	< 10 nM	0.7 nM	12.1 s	11.5 s	4	14.5 s	109	3	20	Cc1ccc(S(=O)(=O)N[C@H](C(=O)N[C@@H](CC(C)C)C(=O)N[C@@H](CC(=O)O)C(=O)N2CCC[C@H]2C(=O)N[C@@H](CCCNC(=N)N)C(=O)CCl)[C@@H](C)O)cc1 [5AA, tosyl-TLDPR-CK] (Tos-TLDPR-CH2Cl)	4	0.13	sciatic nerve conduction velocity relative to sham treated mice [11]: followed a similar trend
–	–	–	–	–	–	–	–	–	–	–	–	–	–	–	–	–	N=C(N)c1ccc(CC(NC(=O)CNS(=O)(=O)c2ccc3ccccc3c2)C(=O)N2CCCCC2)cc1 (racemic) [NAPAP, Na-(2-naphthyl-sulphonyl-glycyl)-DL-p-amidinophenylalanyl-piperidine]	–	–	conduction velocity ([12]; daily treatment for 2 weeks, TLCK 4.4 mg/kg, NAPAP 120 μM/kg, untreated EAN 23.6±1.2): 36.05±3.57 m/sec; proximal amplitude ([12]; untreated EAN 0.76±0.33, non-significant): 0.83±0.4 millivolts; latency ([12]; untreated EAN 1.43±0.023, control 0.54±0.03): 1.32 ± 0.33 ms; thrombin-like activity [13]: inhibited; conduction velocity ([14]; daily treatment for 2 weeks, TLCK 4.4 mg/kg, NAPAP 120 μM/kg, untreated STZ 28.5±2.8): 40.1±2.7 m/sec; proximal amplitude ([14]; untreated STZ 0.48±0.13, insignificant): 1.68±0.64 millivolts; latency ([14]; untreated STZ 1.93±0.139, control 1.29±0.057): 1.676 ± 0.132 ms

Reference: patent US10028999B2, “PAR-1 based therapeutic conjugates and uses thereof” (TEL HASHOMER MEDICAL RESEARCH INFRASTRUCTURE AND SERVICES …, priority 2014, dated 2018)
